Data set [1] can be described thus: Soil tests with the new manganic chelate and other manganese sources. In kind it is physicochemical. On the procedure: A soil sample was taken from a sugar-beet field in Helsingborg, Sweden. It was sifted and homogenised and analysed by a certified agricultural laboratory by so-called ICP after extraction with dilute acetic of EDTA.
35 g portions of the slightly moist soil were transferred to 250 ml glass bottles together with 120 ml of dilute solutions containing about 30 ppm manganese. The solutions to be tested were made from:
The bottles were rotated in a tumbling device at about 1 revolution per second for a period of 19 days. […] The clear liquid samples were analysed by ICP.

For data set [2] the following is noted: Ahrland et al. 1990, cited from earlier work.
Data set [3] in a line: Preference of the new chelant for manganic ions over ferric ions (citrate solutions, pH 7.8). The conditions noted are these: for colour developed: pH 7.8. In kind it is physicochemical. As for the experimental part: In order to show the preference of the new chelants for manganic ions over ferric ions, stable, slightly alkaline solutions of these ions were prepared by chelation with two moies of citric acid. Both solutions were adjusted with sodium hydroxide to a pH of 7.8 at a concentration of 0.001 mmole/ml of manganese and iron, respectively. Three experiments were made for comparison:
a) of each solution 10 ml (0.01 mmole) was mixed, and 0.25 g of the 0.04 molar chelate (or ligand) solution from. Example 1 […] was added.
b) 10 ml of manganic citrate solution was mixed with 0.25 g of the chelate solution.
c) 10 ml of the ferric citrate solution was mixed with 0.25 g of the chelate solution.

A short description of data set [4]: Formation and hydrolytic stability of a ferric chelate. In kind it is physicochemical. The conditions noted are these: for Appearance of ferric chelate solution: colour observed during the next 1-2 hours. On the procedure:
2 ml of the chelate solution from Example 1 (0.08 mmole) was diluted with 15 ml water and 1 ml of 0.05 molar ferric chloride solution was added dropwise. The pH was brought to 7 with dilute sodium hydroxide, giving a dark wine red solution. The solution was then gradually alkalised by the addition of dilute sodium hydroxide, and the colour was observed during the next 1-2 hours.

Data set [5] is described as follows: Hydrolytic stability of the new manganic chelate (step-wise alkalisation with dilute sodium hydroxide). The data set is classed as physicochemical. The source says: The manganic chelate solution from Example 2 was alkalised step-wise with dilute sodium hydroxide. Samples were taken at various pH and set aside for later inspection.
Data set [6] in a line: Shaking test with calcium carbonate. In kind it is physicochemical. The source says: The test in Example 6 was repeated with the new manganic chelate but with analytical grade calcium carbonate instead of soil. The pH of the suspension was 8.5.
A short description of data set [7]: Comparative test with a reduced chelant (manganic chelate of borohydride-reduced chelant). The data set is classed as physicochemical. As for the experimental part: A solution of the chelant according to Example 1 was adjusted to a concentration of 10 mmoles/L and a pH of 5. Sodium borohydride was added at 5 minute intervals until the yellow salicylimine colour disappeared. The pH was then adjusted to 8, and the manganic chelate was generated as described in Example 2 for a final pH of 8.

Data set [8] is described as follows: pH stability of manganic and ferric chelates of the tropolone chelant. The data set is classed as physicochemical. As for the experimental part: The manganic chelate of the new chelant was prepared in analogy with Example 2 and formed a brown solution stable at pH 10.
With ferric iron ions the chelant formed a red solution at pH 5. On raising the pH the red colour started to fade at pH 7-8.

Data set [9] can be described thus: Tropolone chelant with molar equivalents of manganic and ferric ions. In kind it is physicochemical. To be noted: pH 9.
Where [10] appears, read: b) manganic citrate solution only.
Where [11] appears, read: c) ferric citrate solution only.

This is an account of results in US6627580B2, “Chelating agents and their manganic chelates” (Akzo Nobel N.V., priority 1997, dated 2003).

Take `O=C(O)C(NCCNC(C(=O)O)c1ccccc1O)c1ccccc1O.[Mn+3]` (stereo not drawn) [manganic EDDHA, reference compound]: in data set [1] (soil test), the “time to colour change of centrifuged sample from brownish to red (manganese replaced by ferric iron)” value is at most 1 days. Further, the “pKa for hydrolysis of manganic chelate” value in data set [2] (manganic chelate) is 9.3.
Consider `O=C(O)CC(N=Cc1ccccc1O)C(CC(=O)O)N=Cc1ccccc1O` (stereo not drawn) [Example 1], for which the “stability of the yellow colour” value in data set [3] (a) manganic citrate + ferric citrate solutions) and in data set [3] (setting [10]) was “stable for weeks” in each case. Further, the colour developed result in data set [3] (a) manganic citrate + ferric citrate solutions (0.01 mmole each)) is “yellow ochre colour”; in data set [3] (setting [10]) it was “yellow ochre colour”; in data set [3] (setting [11]), “red colour”. For the same molecule, the “time until solution turned completely red” value in data set [3] (setting [11]) was “about one hour”. Besides, the “selectivity between ferric and manganic ions” value in data set [3] (near neutral pH, yellow colour stable for at least several weeks) is given as “remarkable preference for manganic ion”.
With `O=C([O-])CC(N=Cc1ccccc1[O-])C(CC(=O)[O-])N=Cc1ccccc1[O-].[Fe+3]` (stereo not drawn) [Example 5], the “pH at which the ferric chelate starts to hydrolyse” value in data set [4] is listed as 9. Also, the “Appearance of ferric chelate solution” value in data set [4] (pH 7) was “Wine red”; in [4] (pH 8), “Wine red”; in [4] (pH 9), “Slightly lighter wine red”; in [4] (pH 10), “Lighter wine red”; in data set [4] (pH 11), “Much lighter wine red”.
For the molecule `O=C([O-])CC(N=Cc1ccccc1[O-])C(CC(=O)[O-])N=Cc1ccccc1[O-].[Mn+3]` (stereo not drawn) [Example 2], the “pH up to which the manganic chelate forms stable solutions / is stable to hydrolysis” value in data set [5] (manganic chelate) is on record as “at least 10.5”. Further, the “appearance of manganic chelate solution” value in data set [5] (pH 8, after 1 h) is “clear,”; in data set [5] (pH 8, after 24 hours), “clear, same colour”; in [5] (pH 8, after 5 days), “clear,”; in [5] (pH 8, immediately), “clear ochre”; in data set [5] (pH 9, after 1 h) it was “clear,”; in data set [5] (pH 9, after 24 hours) it was “clear, same colour”. Moreover, the “appearance of manganic chelate solution” value in data set [5] (pH 9, after 5 days) is “clear,”; in [5] (pH 9, immediately), “clear, same colour”; in data set [5] (pH 10.5, after 1 h) it was “clear,”; in data set [5] (pH 10.5, after 24 hours) it was “clear, same colour”; in data set [5] (pH 10.5, after 5 days), “clear,”; in [5] (pH 10.5, immediately), “clear, same colour”. Also, the “appearance of manganic chelate solution” value in data set [5] (pH 11, after 1 h) is recorded as “clear,”; in data set [5] (pH 11, after 24 hours) it was “slight precipitate”; in [5] (pH 11, after 5 days), “slight”; in data set [5] (pH 11, immediately), “clear, same colour”; in data set [5] (pH 11.3, after 1 h), “precipitation”; in data set [5] (pH 11.3, after 24 hours), “considerable dark”. Also, the “appearance of manganic chelate solution” value in data set [5] (pH 11.3, after 5 days) is listed as “as before”; in data set [5] (pH 11.3, immediately), “clear, same colour”. The “soluble manganese retained, of its original content” value in data set [1] (after 19 days with soil of low manganese, high iron content) was “about 50%”. For the same molecule, the “time to visible colour change of centrifuged sample to orange yellow” value in [1] (soil test) was “after a week”. Also, the “manganese content in the liquid phase” value in [6] (calcium carbonate suspension, pH 8.5, remained constant for several weeks) worked out at 30 ppm. The “colour of liquid phase” value in [6] (calcium carbonate suspension, pH 8.5, several weeks) was “remained the same yellow ochre”. Also, the “solubility in shaking test with calcium carbonate” value in data set [6] (for at least several weeks) is “completely soluble”. For the same molecule, the hydrolytic stability entry in [6] (pH 8.5 in the presence of calcium) is “excellent hydrolytic stability”.
Turning to `O=C([O-])CC(NCc1ccccc1[O-])C(CC(=O)[O-])NCc1ccccc1[O-].[Mn+3]` (stereo not drawn) [Example 4], the “stability to hydrolysis of manganic chelate of reduced chelant” value in data set [7] is “very unstable to hydrolysis”. The “result on generating the manganic chelate” value in data set [7] (final pH of 8) is reported as “immediate dark precipitate”. Moreover, the manganese dioxide precipitation entry in data set [7] (neutral pH) was “started to precipitate immediately”.
Turning to `O=C(O)C(NCCNC(C(=O)O)c1ccccc1O)c1ccccc1O` (stereo not drawn) [EDDHA, ethylenediamine-di-2-hydroxyphenylacetic acid], in data set [2] (ferric chelate), the “pKa for hydrolysis of ferric chelate” value was 12.7.
On to `O=C(O)CC(N=c1cccccc1O)C(CC(=O)O)N=c1cccccc1O` (stereo not drawn) [Example 9], for which the “pH at which the red colour started to fade” value in data set [8] (ferric chelate, on raising the pH) is listed as 7-8. In addition, the “appearance with ferric iron ions” value in data set [8] (ferric chelate, pH 5) is recorded as “red solution”; in data set [8] (ferric chelate, pH 10), “turned yellow, with precipitation of the ferric hydroxide”. Also, in data set [8] (manganic chelate, pH 10), the “stability of manganic chelate solution (brown)” value is “stable”. Moreover, the “colour with molar equivalents of both manganic and ferric ions (indicating preference for manganic ions)” value in data set [9] was “stable brown colour”.
